Measured values as given in PubChem BioAssay (NCI).
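Five compound concentrations were applied to cells in 96-well plates for 48 hours; endpoints were derived by simple linear interpolation of the resulting dose-response curve. TGI: total growth inhibition.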

Each compound was assayed on COLO 205 colon (assay: NCI anticancer screen, dose series, 48 h).

Row | SMILES | TGI [µM]
1 | CC1=CCC([C@@](C)(O)CCCC(C)(C)N=C=S)CC1 (some centres undefined) | 30.2
2 | C=C1C(=O)CC2C1CC(=O)/C(C)=C/CCC(C)(O)C2O (centres undefined) | 7.49
3 | C[C@H](CCC(=O)O)[C@H]1CC[C@H]2[C@@H]3C(=O)C[C@@H]4C[C@H](O)CC[C@]4(C)[C@H]3C[C@H](O)[C@]12C | > 100
4 | O=C(O)c1ccccc1CC(Cc1ccc2c(c1)CCC2)C(=O)O (centres undefined) | > 100
5 | Cn1c(SCc2ccc(F)cc2)nnc1C12CC3CC(CC(C3)C1)C2 | 31.6
6 | COC(=O)/C=C\C(C#N)(C#N)N=Cc1ccc(C)cc1 | 4.56
7 | COc1ccc(N2C(=O)CC(=O)N(NC(=O)C(C)Oc3ccccc3C)C2=S)cc1 (centres undefined) | > 100
8 | O=C1OC(C2Cc3ccc4ccccc4c3C2=O)c2ccccc21 (centres undefined) | > 100
9 | C/C(=N\N=C1/C(=O)OC(c2ccccc2)=C1C(=O)c1ccccc1)c1ccc([N+](=O)[O-])cc1 | > 100
10 | O=S(=O)(O)C(CO)c1ccccc1 (centres undefined) (tested in a mixture with another compound) | > 100
11 | Cc1nc(C)c(N2CCN([N+](=O)[O-])CC2)c(=O)[nH]1 | > 100
12 | Cc1nn(-c2ccccc2)c2c1C(c1cc3ccccc3nc1Cl)NC(=O)N2 (centres undefined) | 41.1
13 | COc1ccc(C2OC(c3ccncc3)=NN2C)cc1F (centres undefined) | > 100
14 | Cc1cc(/N=C/c2ccc(N(C)C)cc2)n(-c2ccccc2)n1 | > 100
15 | O=C(/C=C/c1ccccc1)Oc1ccc(C(=O)/C=C/c2ccccc2)cc1 | 21
16 | COC(=O)C(Cc1ccc2c(c1)CCC2)Cc1ccc2c(c1)CCC2 | > 100
17 | C/C(C[n+]1ccccc1)=N\N=C(N)N | > 100
18 | NCCCN1c2ccccc2Sc2ccc(Cl)cc21 | 3.27
19 | CCOC(=O)c1cccc(N=Nc2nc[nH]c2/C=C/C(=O)OC)c1 | > 100
20 | O=C(O)CN1CCN2CCCCCN(CC1)CCN(CC(=O)O)CC2 | > 100
21 | Clc1ccc(-c2nnc3sc4nc5ccccc5c-4nn23)c(Cl)c1 | > 100
22 | C=C(C(=O)OCC)C(=O)OCC | > 100
23 | N#CC(C#N)=C1SC(=Nc2ccccc2)C(=Nc2ccccc2)N1c1ccccc1 | 30.2
24 | CSC1=N/C(=C\c2ccc(C)cc2)C(=O)N1CN1CCCCC1 | > 100
25 | O=C1c2cc(-c3ccccc3)cnc2S(=O)(=O)N1c1ccc(Br)cc1 | > 100
26 | O=C(NCP(=O)(Oc1ccccc1)Oc1ccccc1)OCc1ccccc1 | > 100
27 | Cc1c(O)nc(-n2[nH]c3c(c2=O)CCCC3)[nH]c1=O | > 100
28 | C=CCc1cc(-c2nc(=S)[nH][nH]2)ccc1N=NNc1ccc(C(=O)O)cc1 | 58
29 | O=C(O)CN1CCNCCN(CC(=O)O)CCN(CC(=O)O)CCNCC1 | > 100
30 | COC(C)(C)C1(O)CC[C@@H](C)CC1=O (some centres undefined) | > 100

What follows are compounds tested on RXF 393 renal (assay: NCI anticancer screen, dose series, 48 h).

Row | SMILES | TGI [µM]
31 | CC1=CCC([C@@](C)(O)CCCC(C)(C)N=C=S)CC1 (some centres undefined) | 29.6
32 | C=C1C(=O)CC2C1CC(=O)/C(C)=C/CCC(C)(O)C2O (centres undefined) | 11.6
33 | C[C@H](CCC(=O)O)[C@H]1CC[C@H]2[C@@H]3C(=O)C[C@@H]4C[C@H](O)CC[C@]4(C)[C@H]3C[C@H](O)[C@]12C | > 100
34 | O=C(O)c1ccccc1CC(Cc1ccc2c(c1)CCC2)C(=O)O (centres undefined) | > 100
35 | Cn1c(SCc2ccc(F)cc2)nnc1C12CC3CC(CC(C3)C1)C2 | > 100
36 | COC(=O)/C=C\C(C#N)(C#N)N=Cc1ccc(C)cc1 | 3.9
37 | CC(c1ccccc1)N1CCN(C(C)c2ccccc2)CC1 (centres undefined) | > 100
38 | COc1ccc(N2C(=O)CC(=O)N(NC(=O)C(C)Oc3ccccc3C)C2=S)cc1 (centres undefined) | > 100
39 | O=C1OC(C2Cc3ccc4ccccc4c3C2=O)c2ccccc21 (centres undefined) | 49.5
